# Results from article PMC12408343, “Deep learning reveals antibiotics in the archaeal proteome” (Nature Microbiology, 2025).
# Bridge positions count the residues as written; N and C are the ends. Square brackets hold non-standard residues; d marks the D form. Peptide text beside a SMILES is read from it. * marks the point of attachment. X1 = CC[C@H](C)CCCCC(=O)*; Dab = NCC[C@H](N)C(=O)O
# Key:
# P. aeruginosa PAO1 = experiment: microbe, parasite or virus in culture; set-up: MIC, P. aeruginosa PAO1 (-): unit not given beside the values
# Protocol: (§1) Briefly, 10^5 bacterial cells were incubated with serially diluted EPs (0–64 μmol l^−1) at 37 °C. Bacterial growth was assessed by measuring the optical density at 600 nm in a microplate reader at 1 day post-treatment. […] Secondary structure fractions were calculated using the BeStSel server. fH and fβ stand for helical and β fractions, respectively.
# A. baumannii = experiment: Cytoplasmic membrane fluidity, Laurdan generalized polarization; assay type: cell-based, Acinetobacter baumannii; details: peptides at 100× MIC stock diluted 1:100, 30 min, λex 350, λem 440/490 nm; mean of 3 independent experiments
# Source text: Fig. 4 Mechanism of action, haemolytic activity and cytotoxicity of antibiotics from the archaeome. […] The fluorescence probe NPN was used to assess membrane permeabilization (a) induced by the tested EPs (Extended Data Fig. 6a). The fluorescence probe DiSC3-5 was used to evaluate membrane depolarization (b) caused by archaeasins (Extended Data Fig. 6b). The shown values represent the relative fluorescence of both probes, with nonlinear fitting compared with the baseline of the untreated control (buffer + bacteria + fluorescence dye) and benchmarked against the antibiotics polymyxin B and levofloxacin. c, Laurdan generalized polarization over time in A. baumannii treated with archaeasins. […] Higher generalized polarization values indicate increased membrane rigidity, whereas lower values reflect increased membrane fluidity. Benzyl alcohol was used as a positive control for membrane fluidization, and untreated cells served as a negative control. […] All experiments were performed in three independent replicates (Extended Data Fig. 7). The protein and peptide structures depicted in panels a and b were created with PyMOL Molecular Graphics System, v.3.0 (Schrödinger).
# E. coli ATCC 11775 = experiment: microbe, parasite or virus in culture; set-up: MIC, E. coli ATCC 11775 (-): unit not given beside the values; details: for MIC E. coli ATCC 11775 (−): LB, 1–64 μmol l^−1 two-fold dilutions, 24 h, 37 °C, OD600, mode of three independent replicates
# Protocol: as §1
# [1] = test system: E. coli AIC222 (colistin-resistant, CRE); experiment: microbe, parasite or virus in culture; set-up: MIC, E. coli AIC222 - CRE (-): unit not given beside the values; details: for MIC E. coli AIC222 – CRE (−): colistin-resistant strain, LB, 1–64 μmol l^−1 two-fold dilutions, 37 °C, OD600, mode of three independent replicates
# Protocol: as §1
# [2] = test system: human red blood cells (RBCs)
# Protocol: To assess the potential toxicity of the synthesized archaeasins, we exposed them to human red blood cells (RBCs), a common method for evaluating the toxicity of antimicrobial agents[20],[26],[27].
# To evaluate the release of haemoglobin from human erythrocytes upon treatment of each of the EPs, human RBCs were obtained from Zen-Bio (donor, blood type A^−) obtained from heparin anti-coagulated blood. RBCs were washed with PBS (pH 7.4) 4× by centrifugation at 800g for 10 min. Aliquots of 200-fold-diluted cells (75 μl) were mixed with peptide solution (0.78–100 μmol l^−1; 75 μl), and the mixture was incubated for 4 h at room temperature. After incubation, the plate was centrifuged at 1,300g for 10 min to precipitate cells and debris, and 100 μl of supernatant from each well was transferred to a new 96-well plate for absorbance reading (405 nm) using an automatic plate reader. The percentage of haemolysis was defined by comparison with negative control (samples containing PBS) and positive control (samples containing 1% (v/v) SDS in PBS solution). Haemolysis(%)=100×(absorbance405nmpeptide−absorbance405nmnegativecontrol)/(absorbance405nmpositivecontrol−absorbance405nmnegativecontrol)
# All assays were performed in three independent biological replicates as indicated in each figure legend and in the Methods. […] In the skin abscess and thigh infection mouse models, we used six mice per group following established protocols approved by the University Laboratory of Animal Resources of the University of Pennsylvania.
# Extended Data Fig. 7 Hemolytic activity of archaeasins. Hemolytic activity was assessed by exposing red blood cells to archaeasins, with lysis determined by absorbance readings after 4 h. The peptides were added to plates and subjected to a two-fold dilution series (ranging from 64 to 4 μmol L^−1) before exposure to the red blood cells. Source data
# [3] = test system: E. faecium ATCC 700221 (VRE); experiment: microbe, parasite or virus in culture
# Protocol: as §1
# A. baumannii ATCC 19606 [4] = experiment: microbe, parasite or virus in culture; details: for MIC A. baumannii ATCC 19606 (−): broth microdilution, LB, 1–64 μmol l^−1 two-fold dilutions, 24 h, 37 °C, OD600, mode of three independent replicates
# Protocol: as §1
# S. aureus ATCC 12600 = experiment: microbe, parasite or virus in culture
# Protocol: as §1
# K. pneumoniae ATCC 13883 = experiment: microbe, parasite or virus in culture
# Protocol: as §1
# E. coli AIC221 = experiment: microbe, parasite or virus in culture; set-up: MIC, E. coli AIC221 (-): unit not given beside the values
# Protocol: as §1
# P. aeruginosa PA14 = experiment: microbe, parasite or virus in culture; set-up: MIC, P. aeruginosa PA14 (-): unit not given beside the values
# Protocol: as §1
# [5] = test system: S. aureus ATCC BAA-1556 (MRSA); experiment: microbe, parasite or virus in culture; set-up: MIC, S. aureus ATCC BAA-1556 - MRSA (+): unit not given beside the values
# Protocol: as §1
# [6] = test system: E. faecalis ATCC 700802 (VRE); experiment: Broth microdilution MIC; assay type: cell-based, Enterococcus faecalis; details: vancomycin-resistant strain, LB, 1–64 μmol l^−1 two-fold dilutions, 24 h, 37 °C, OD600, mode of three independent replicates
# Protocol: as §1
# A. baumannii ATCC 19606 [7] = experiment: Neutropenic deep thigh infection mouse model; assay type: in vivo; details: neutropenic female CD-1 mice, n = 6, single intraperitoneal dose 2 h after infection
# Protocol: The limit of detection (LOD) for the CFU quantification is log10CFU = 2. Statistical significance in panels b and d was determined using one-way analysis of variance followed by Dunnett’s test; P values are shown in the graphs. In the violin, the centre line represents […], the box limits the 1st and 3rd quartiles, and the whiskers (minimum and maximum) represent 1.5× the interquartile range. The solid line inside each box represents […] value obtained for each group. Panels a and c created with BioRender.com. Source data
# Next, we assessed the efficacy of the same lead archaeasins (archaeasin-2, archaeasin-17 and archaeasin-73) in a murine deep thigh infection model (Fig. 5c), which is widely used to assess the antibiotic potential of compounds. Mice were administered 2 rounds of cyclophosphamide treatment for immunosuppression before the intramuscular infection with 1 × 10^5 cells in 100 μl of A. baumannii. A single dose of each archaeasin (at their MIC) was delivered intraperitoneally (Fig. 5c). […] Four days post-treatment, the bacterial counts remained stable for all peptide treatment conditions and the treatments with polymyxin B and levofloxacin, while the untreated control increased by two orders of magnitude. […]
# [8] = Fig 2a source data, Gram-negative, broth microdilution
# [9] = broth microdilution, LB, 1–64 μmol l^−1 two-fold dilutions, 24 h, 37 °C, OD600, mode of three independent replicates
smiles,measurement,setting,value
CC[C@H](C)[C@H](NC(=O)[C@H](CC(C)C)NC(=O)[C@H](CC(C)C)NC(=O)[C@H](CCCNC(=N)N)NC(=O)[C@H](C)NC(=O)[C@H](CC(C)C)NC(=O)[C@H](Cc1ccc(O)cc1)NC(=O)CNC(=O)[C@H](C)NC(=O)CN)C(=O)N[C@@H](CCCNC(=N)N)C(=O)N[C@@H](CCCNC(=N)N)C(=O)N[C@@H](CO)C(=O)N[C@@H](CC(C)C)C(=O)N[C@@H](CCCNC(=N)N)C(=O)N[C@@H](CC(C)C)C(=O)N[C@@H](CC(C)C)C(=O)N[C@@H](CCCNC(=N)N)C(=O)N[C@@H](CCCNC(=N)N)C(=O)N[C@@H](CC(C)C)C(=O)O [Archaeasin-78] (H-GAGYLARLLIRRSLRLLRRL-OH; N-terminus and C-terminus assumed),"MIC, P. aeruginosa PAO1 (-)",P. aeruginosa PAO1; [8],8
same,MIC P. aeruginosa PAO1 (−),"P. aeruginosa PAO1; PAO1, 24 h",8 µM
same,Laurdan generalized polarization change of cytoplasmic membrane,A. baumannii,pronounced increases in generalized polarization values over time
same,"MIC, E. coli ATCC 11775 (-)",E. coli ATCC 11775; [8],32
same,"MIC, E. coli AIC222 - CRE (-)","[1]; Fig 2a source data, Gram-negative, CRE, broth microdilution",4
same,haemolytic effects,[2],did show haemolytic effects
same,HC50 (source data of Fig. 4),"[2]; red cells of human, 4 h",5.537 µmol/L
same,"HC50, peptide concentration leading to 50% RBC lysis","[2]; red cells of human, 4 h",6 µmol/L
same,MIC E. faecium ATCC 700221 – VRE (+),"[3]; ATCC 700221, 24 h",1 µM
same,"MIC, E. faecium ATCC 700221 - VRE (+)","[3]; Fig 2a source data, Gram-positive, VRE, broth microdilution",1
same,"MIC, A. baumannii ATCC 19606 (-)",A. baumannii ATCC 19606 [4],1
same,MIC S. aureus ATCC 12600 (+),"S. aureus ATCC 12600; ATCC 12600, 24 h",8 µmol/L
same,MIC S. aureus ATCC 12600 (+),"S. aureus ATCC 12600; Fig 2a source data, Gram-positive, broth microdilution",8
same,MIC K. pneumoniae ATCC 13883 (−),"K. pneumoniae ATCC 13883; ATCC 13883, 24 h",4 µM
same,"MIC, K. pneumoniae ATCC 13883 (-)",K. pneumoniae ATCC 13883; [8],4
same,MIC E. coli AIC221 (−),"E. coli AIC221; AIC221, 24 h",1 µM
same,"MIC, E. coli AIC221 (-)",E. coli AIC221; [8],1
same,"MIC, P. aeruginosa PA14 (-)",P. aeruginosa PA14; [8],16
same,MIC P. aeruginosa PA14 (−),"P. aeruginosa PA14; PA14, 24 h",16 µM
same,MIC S. aureus ATCC BAA-1556 – MRSA (+),"[5]; ATCC BAA-1556, 24 h",8 µM
same,"MIC, S. aureus ATCC BAA-1556 - MRSA (+)","[5]; Fig 2a source data, Gram-positive, MRSA, broth microdilution",8
"C[C@H]1COc2c(N3CCN(C)CC3)c(F)cc3c(=O)c(C(=O)O)cn1c23 [Levofloxacin, reference compound]",MIC,"P. aeruginosa PAO1; Pseudomonas aeruginosa, PAO1, 24 h, read-out: MIC P. aeruginosa PAO1 (−)",4 µM
same,MIC P. aeruginosa PAO1 (−),P. aeruginosa PAO1; [9],4 µM
same,MIC,[6]; Enterococcus faecalis,2 µM
same,MIC E. faecalis ATCC 700802 – VRE (+),[6],2 µM
same,MIC,"E. coli ATCC 11775; Escherichia coli, ATCC11775, 24 h, read-out: MIC E. coli ATCC 11775 (−)",0.125 µM
same,MIC E. coli ATCC 11775 (−),E. coli ATCC 11775; broth microdilution,0.125 µM
same,MIC,"[1]; Escherichia coli, 24 h, read-out: MIC E. coli AIC222 – CRE (−)",0.25 µM
same,MIC E. coli AIC222 – CRE (−),"[1]; broth microdilution, 24 h",0.25 µM
same,MIC,"[3]; Enterococcus faecium, ATCC700221|VRE, 24 h, read-out: MIC E. faecium ATCC 700221 – VRE (+)",16 µM
same,MIC E. faecium ATCC 700221 – VRE (+),"[3]; vancomycin-resistant strain, broth microdilution, LB, 1–64 μmol l^−1 two-fold dilutions, 24 h, 37 °C, OD600, mode of three independent replicates",16 µM
same,MIC,"A. baumannii ATCC 19606 [4]; Acinetobacter baumannii, ATCC19606, 24 h, read-out: MIC A. baumannii ATCC 19606 (−)",1 µM
same,MIC A. baumannii ATCC 19606 (−),A. baumannii ATCC 19606 [4],1 µM
same,MIC,"S. aureus ATCC 12600; Staphylococcus aureus, ATCC12600, 24 h, read-out: MIC S. aureus ATCC 12600 (+)",2 µM
same,MIC S. aureus ATCC 12600 (+),S. aureus ATCC 12600; [9],2 µmol/L
same,MIC,"K. pneumoniae ATCC 13883; Klebsiella pneumoniae, ATCC13883, 24 h, read-out: MIC K. pneumoniae ATCC 13883 (−)",1 µM
same,MIC K. pneumoniae ATCC 13883 (−),K. pneumoniae ATCC 13883; [9],1 µM
same,"reduction of bacterial load, deep thigh infection, four days post-treatment",A. baumannii ATCC 19606 [7],three
same,MIC,"E. coli AIC221; Escherichia coli, AIC221, 24 h, read-out: MIC E. coli AIC221 (−)",0.125 µM
same,MIC E. coli AIC221 (−),E. coli AIC221; [9],0.125 µM
same,MIC,"P. aeruginosa PA14; Pseudomonas aeruginosa, PA14, 24 h, read-out: MIC P. aeruginosa PA14 (−)",0.5 µM
same,MIC P. aeruginosa PA14 (−),P. aeruginosa PA14; [9],0.5 µM
same,MIC,"[5]; Staphylococcus aureus, ATCCBAA1556|MRSA, 24 h, read-out: MIC S. aureus ATCC BAA-1556 – MRSA (+)",32 µM
same,MIC S. aureus ATCC BAA-1556 – MRSA (+),"[5]; methicillin-resistant strain, broth microdilution, LB, 1–64 μmol l^−1 two-fold dilutions, 24 h, 37 °C, OD600, mode of three independent replicates",32 µM
"CC[C@H](C)CCCCC(=O)N[C@@H](CCN)C(=O)N[C@H](C(=O)N[C@@H](CCN)C(=O)N[C@H]1CCNC(=O)[C@H]([C@@H](C)O)NC(=O)[C@H](CCN)NC(=O)[C@H](CCN)NC(=O)[C@H](CC(C)C)NC(=O)[C@@H](Cc2ccccc2)NC(=O)[C@H](CCN)NC1=O)[C@@H](C)O [Polymyxin B, reference compound] (X1-[Dab]T[Dab][Dab][Dab][dF]L[Dab][Dab]T; lactam 4-C (inferred); N-terminus assumed)",MIC P. aeruginosa PAO1 (−),P. aeruginosa PAO1; [9],4 µM
same,MIC E. coli ATCC 11775 (−),E. coli ATCC 11775; broth microdilution,0.25 µM
same,MIC E. coli AIC222 – CRE (−),"[1]; broth microdilution, 24 h",8 µM
same,MIC A. baumannii ATCC 19606 (−),A. baumannii ATCC 19606 [4],0.5 µM
same,MIC K. pneumoniae ATCC 13883 (−),K. pneumoniae ATCC 13883; [9],8 µM
same,"reduction of bacterial load, deep thigh infection, four days post-treatment",A. baumannii ATCC 19606 [7],three
same,MIC E. coli AIC221 (−),E. coli AIC221; [9],0.25 µM
same,MIC P. aeruginosa PA14 (−),P. aeruginosa PA14; [9],8 µM
